In experiment [1] the target is T1, Cdc4^WD40 (Saccharomyces cerevisiae, UniProt P07834).
T1 sequence (P07834 367-744): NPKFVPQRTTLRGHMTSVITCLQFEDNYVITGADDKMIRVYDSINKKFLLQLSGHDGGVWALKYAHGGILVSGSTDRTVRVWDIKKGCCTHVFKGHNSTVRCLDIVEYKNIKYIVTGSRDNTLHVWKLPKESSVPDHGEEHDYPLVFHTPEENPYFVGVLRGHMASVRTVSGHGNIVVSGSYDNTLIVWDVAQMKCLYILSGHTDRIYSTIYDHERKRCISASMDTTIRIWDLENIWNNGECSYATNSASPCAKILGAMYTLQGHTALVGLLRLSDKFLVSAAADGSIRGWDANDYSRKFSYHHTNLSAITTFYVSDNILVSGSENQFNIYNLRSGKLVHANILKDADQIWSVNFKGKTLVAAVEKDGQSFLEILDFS
To be noted: compared to a singly phosphorylated high-affinity CPD of similar affinity for Cdc4; cited from earlier work. From the text: The phenomenon of allostery, whereby ligand binding at one site alters interactions at a physically distant site, allows for complex control of protein function. […] SCF-I2 elicits this allosteric effect through structural changes that occlude the P−2 region of the CPD pocket.

The target of the next experiment is Skp1-Cdc4 complex (Saccharomyces cerevisiae, UniProt P07834+P52286). As to the kind of experiment: Fluorescence polarization inhibition by SCF-I2 of Ash1 peptide binding to Skp1-Cdc4. More on the design: species or system yeast. To be noted: compared with Ash1^18pT286/pT290 or Ash1^18pT286/pT290/pS294 peptides. Background: In fluorescence polarisation assays a small probe gives low polarisation when free and higher when bound to something large.
Skp1-Cdc4 complex, sequence (P07834 whole entry): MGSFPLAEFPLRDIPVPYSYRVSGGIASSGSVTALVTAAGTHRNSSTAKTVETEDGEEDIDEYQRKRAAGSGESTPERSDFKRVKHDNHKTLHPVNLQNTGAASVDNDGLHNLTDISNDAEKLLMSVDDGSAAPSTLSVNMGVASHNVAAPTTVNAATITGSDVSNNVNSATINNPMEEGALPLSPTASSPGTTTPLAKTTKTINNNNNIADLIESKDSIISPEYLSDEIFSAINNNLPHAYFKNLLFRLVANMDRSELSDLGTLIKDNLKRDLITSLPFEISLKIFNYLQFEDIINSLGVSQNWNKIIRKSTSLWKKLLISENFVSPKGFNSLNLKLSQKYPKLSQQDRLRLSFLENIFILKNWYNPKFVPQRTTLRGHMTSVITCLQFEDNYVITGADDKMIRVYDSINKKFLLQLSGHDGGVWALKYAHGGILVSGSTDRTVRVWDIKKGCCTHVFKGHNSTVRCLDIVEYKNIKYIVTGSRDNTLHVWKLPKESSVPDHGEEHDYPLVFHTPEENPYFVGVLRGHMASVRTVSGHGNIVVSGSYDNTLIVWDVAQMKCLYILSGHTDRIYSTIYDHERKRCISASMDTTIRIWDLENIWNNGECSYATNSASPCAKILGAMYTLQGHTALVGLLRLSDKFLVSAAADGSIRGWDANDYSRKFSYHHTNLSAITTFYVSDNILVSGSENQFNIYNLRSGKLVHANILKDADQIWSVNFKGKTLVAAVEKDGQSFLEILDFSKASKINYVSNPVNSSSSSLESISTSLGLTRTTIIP
Skp1-Cdc4 complex, sequence (P52286 whole entry partner): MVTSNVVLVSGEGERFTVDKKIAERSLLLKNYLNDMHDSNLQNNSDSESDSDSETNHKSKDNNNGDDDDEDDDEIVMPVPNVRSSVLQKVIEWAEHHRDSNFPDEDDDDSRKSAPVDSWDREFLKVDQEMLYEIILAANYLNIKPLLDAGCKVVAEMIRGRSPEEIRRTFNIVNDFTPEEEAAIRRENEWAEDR

Experiment [2] has as its target T1, Cdc4^WD40. Kind of experiment: Isothermal titration calorimetry (ITC) with Cdc4^WD40. To be noted: 20 °C, cell 30 μM Cdc4^WD40, syringe 100 μM pSic1 or 200 μM SCF-I2, 50 mM Na2HPO4 pH 7.2, 150 mM NaCl, 2 mM β-mercaptoethanol, single-site model, repeated twice, read-out: Kd value for binding Cdc4^WD40 (ITC). Details: species or system yeast. The text has this: We determined the effects of substrate binding on the isolated WD40 domain of Cdc4 (Cdc4^WD40), which is more amenable to NMR due to its size (40 kDa) than the minimal Cdc4-Skp1 complex (∼70 kDa). The N-terminal targeting region of Sic1 (residues 1-90, called Sic1^1-90), which contains 7 of the 9 Sic1 CPD sites and is sufficient for Cdc4 binding, was phosphorylated to completion by Cln2-Cdc28-Cks1 kinase (called pSic1). We used isothermal titration calorimetry (ITC) to determine the affinity of Cdc4^WD40 for pSic1 and SCF-I2 (Supplementary Fig. 1a–c). […] The Kd value for SCF-I2 binding Cdc4^WD40 was 0.6±0.02 μM, concordant with the ∼2 μM Ki value determined for SCF-I2-Cdc4-Skp1 by a fluorescence polarization competition assay.
ITC experiments were performed using VP-ITC and iTC200 microcalorimeters (MicroCal Inc., Northampton, MA) at 20 °C with the sample cell containing 30 μM Cdc4^WD40 and the syringe loaded with 100 μM pSic1 or 200 μM SCF-I2. The samples were dialysed in buffer containing 50 mM Na2HPO4, pH 7.2, 150 mM NaCl, 2 mM β-mercaptoethanol. Runs were performed using 13–20 injections at an interval of 120 s and each binding experiment was repeated twice. Using the Origin software provided by MicroCal Inc., heat associated with each injection was integrated and thermodynamic parameters were extracted by fitting the data to a single-site binding model.

A further experiment has as its target Cdc4-Skp1. To be noted: read-out: Ki value for SCF-I2-Cdc4-Skp1 by fluorescence polarization competition assay; cited from earlier work.

Structures are written as SMILES.

From the text for Skp1-Cdc4 complex: (f) Fluorescence polarization of the fluorescein-labelled Ash1 peptides (circle, pT286/pT290/pS294, square, pT286/pT290, triangle, pT290/pS294, inverted triangle doubly phosphorylated CycE peptide) in the presence of increasing concentrations of the recombinant Skp1-Cdc4 complex (mP, millipolarization unit). (g) Fluorescence polarization of the fluorescein-labelled Ash1 peptides (circle, pT286/pT290/pS294, square, pT286/pT290, triangle, pT290/pS294, inverted triangle, doubly phosphorylated CycE peptide) in the presence of increasing concentrations of the SCF-I2 inhibitor.
Fluorescence polarization assays containing 0.21 μM Skp1-Cdc4 complex and 10 nM fluorescently labelled cyclin E-derived or Ash1-derived phosphopeptides in 10 mM HEPES (pH 7.5), 40 mM NaCl, 0.1 mg ml^−1 BSA and 1 mM DTT in a final volume of 23.5 μl per well were performed on an Analyst HT plate reader (Molecular Devices Corp., Sunnyvale CA).

`O=C(O)c1ccc2ccccc2c1-c1c(C(=O)O)ccc2ccccc12` [SCF-I2]: the “fold lower potency of SCF-I2 towards full-length Sic1” value on Cdc4^WD40 [1] was 10 fold. Also, at Skp1-Cdc4 complex, the “fold higher potency of SCF-I2 for inhibiting Ash1^18pT290/pS294 binding” value is 10 fold. In addition, the equilibrium dissociation constant (Kd) on Cdc4^WD40 [2] worked out at 600 ± 20 nM. Also, the Ki at Cdc4-Skp1 was around 2000 nM.

A word on the Kd: it is the concentration at which binding is half-saturated. What is called Ki is a measure of affinity in units of concentration, obtained from inhibition or displacement.
